Test results as given in ChEMBL document CHEMBL6078662, “Discovery of 3-(2-aminobenzo[d]thiazol-5-yl) benzamide derivatives as potent anticancer agents via ROR1 inhibition” (Bioorg Med Chem, 2025).
pIC50: −log10 of the molar value.

Columns and labels:
NCI-H1975 = experiment: Antiproliferative activity against human NCI-H1975 cells assessed as inhibition of cell proliferation incubated for 72 hrs by MTT assay; assay type: functional, cell-based; details: NCI-H1975, 72 h
[1] = Cytotoxicity against human MRC5 cells assessed as inhibition of cell proliferation incubated for 72 hrs by MTT assay; assay type: toxicity, cell-based
PC-9 = experiment: Antiproliferative activity against human PC-9 cells assessed as inhibition of cell proliferation incubated for 72 hrs by MTT assay; assay type: functional, cell-based; details: PC-9, 72 h
A549 = experiment: Antiproliferative activity against human A549 cells assessed as inhibition of cell proliferation incubated for 72 hrs by MTT assay; assay type: functional, cell-based; details: A549, 72 h
[2] = Selectivity index, ratio of IC50 for cytotoxicity against human MRC5 cells assessed as inhibition of cell proliferation to IC50 for antiproliferative activity against human NCI-H1975 cells assessed as inhibition of cell proliferation; assay type: toxicity, cell-based; details: MRC5 cells and NCI-H1975 cells, read-out: Ratio IC50

SMILES | pIC50 (NCI-H1975) | IC50 at 72 h [1] | pIC50 (PC-9) | pIC50 (A549) | selectivity ratio [2]
Cc1ccc(CNC(=O)c2cccc(-c3ccc4sc(NC(=O)C5CCCCC5)nc4c3)c2)cc1 | < 4.40 | > 80 µM | < 4.40 | < 4.40 | 
COCOc1cc(OCOC)c2c(c1)O[C@@H](c1ccc(OC)cc1)CC2=O | 5.22 | > 80 µM | 4.98 | < 4.40 | > 13.2
COCCNC(=O)c1cccc(-c2ccc3sc(NC(C)=O)nc3c2)c1 | < 4.40 | > 80 µM | < 4.40 | < 4.40 | 
CCCNC(=O)c1cccc(-c2ccc3sc(NC(=O)C(C)(C)C)nc3c2)c1 | 5.09 | > 80 µM | < 4.40 | 4.50 | > 9.8
COCCNC(=O)c1cccc(-c2ccc3sc(NC(=O)C(C)(C)C)nc3c2)c1 | 4.96 | > 80 µM | < 4.40 | < 4.40 | > 7.23
CC(=O)Nc1nc2cc(-c3cccc(C(=O)NCc4ccc(F)cc4)c3)ccc2s1 | 5.03 | > 80 µM | < 4.40 | < 4.40 | > 8.56
CCCC(=O)Nc1nc2cc(-c3cccc(C(=O)NCCOC)c3)ccc2s1 | < 4.40 | > 80 µM | < 4.40 | < 4.40 | 
COc1ccc(CNC(=O)c2cccc(-c3ccc4sc(NC(=O)C(C)(C)C)nc4c3)c2)cc1 | 4.91 | > 80 µM | < 4.40 | < 4.40 | > 6.52
CC(=O)Nc1nc2cc(-c3cccc(C(=O)NCC4CC4)c3)ccc2s1 | < 4.40 | > 80 µM | < 4.40 | < 4.40 | 
CC(C)CCNC(=O)c1cccc(-c2ccc3sc(NC(=O)C(C)(C)C)nc3c2)c1 | 5.36 | > 80 µM | 4.86 | < 4.40 | > 18.2
